From US5102667A, “Isoindolone derivatives, their preparation and the pharmaceutical compositions containing them” (Rhone-Poulenc Sante, priority 1989, dated 1992)
Where two headings read alike, the source gives them in different places.

Assays:
[1] = analgesic activity (technique of E. Siegmund et al.); type: in vivo
Description: Exp. Biol. Med., 95, 729 (1957).

septide [2] = experiment: antagonism of behavioural effects induced by septide administered intrathecally (technique of R. E. Rodriguez et al.); type: in vivo; settings: rats
substance P = experiment: inhibition of the increase in capillary permeability caused by substance P (technique of A. Saria et al.); type: in vivo; settings: Rattus norvegicus, iv, rats
Description: The study of several isoindolone derivatives of general formula (I) using the technique of A. Saria et al., Arch.

[3] = system: substance P receptors of human cells: lymphoblasts of line IM 9; experiment: binding of substance P-H^3 on washed homogenates of IM-9 cells; settings: substance P-H^3 1 nM
Experimental: Substance P plays a role in the modulation of immune processes (J. P. McGillis et al., Fed. Proc., 46 (1), 196-199 (1987)). Substance P binds to receptors of human cells in cultures: the lymphoblasts of line IM 9 [D. G. Payan et al., J. of Immunology, 133 (6), 3260-5 (1984)]. The products according to the invention displace substance P at these locations.
Binding substance P--H^3 (concentration 1 nM)
on washed homogenates of IM-9 cells after freezing

septide [4] = experiment: antagonism of hypotension induced by septide / substance P (technique of C. A. Maggi et al.); type: in vivo; settings: 0.2 mg/kg i.v./min, for 5 min; rats; i.v. injection of 250 μg of septide
Experimental: The injection of substance P into the animal causes hypotension. The products studied using the technique of C. A. Maggi et al., J. Auton. Pharmac., 7, 11-32 (1987) show an antagonist effect in rats towards this hypotension. In particular, the product of Example 60 administered in a dose of 0.2 mg/kg i.v./min, for 5 min, causes an approximately 50% antagonism of the hypotension induced by an i.v. injection of 250 μg of septide.

## COc1ccccc1CC(=N)N1C[C@@H]2C(=O)CCC(c3ccccc3)(c3ccccc3)[C@@H]2C1 [Example 50, (3aR,7aR)-2-[1-imino-2-(2-methoxyphenyl)ethyl]-7,7-diphenyl-4-perhydroisoindolone]
[1]; p.o.
  ED50: 0.3 mg/kg p.o.
Septide [2]
  % inhibition of the behaviour at a dose of 10 mg/kg sc: 50%
Substance P
  ED50: ~0.05 mg/kg

## COc1ccccc1CC(=N)N1C[C@@H]2C(=O)CCC(c3ccccc3)(c3ccccc3)[C@@H]2C1 (racemic) [Example 48, (3aRS,7aRS)-2-[1-imino-2-(2-methoxyphenyl)ethyl]-7,7-diphenyl-4-perhydroisoindolone]
[1]; p.o.
  ED50: 4 mg/kg p.o.

## COc1ccccc1[C@H](C)C(=O)N1C[C@@H]2C(=O)CCC(c3ccccc3)(c3ccccc3)[C@@H]2C1 [Example 76, (3aR,7aR)-7,7-diphenyl-2-[(S)-2-(2-methoxyphenyl)propionyl]-4-perhydroisoindolone]
[3]
  Binding substance P-H^3 (concentration 1 nM) on washed homogenates of IM-9 cells after freezing: 315

## O=C1CCC(c2ccccc2)(c2ccccc2)[C@@H]2CN(C(Cc3ccccc3)=NCc3cccs3)C[C@H]12 (relative stereo) [Example 27]
[1]; po, read-out: ED50
  ED50: 29 mg/kg

## O=C1CCC(c2ccccc2)(c2ccccc2)[C@@H]2CN(C(Cc3ccccc3)=NCc3ccccc3)C[C@H]12 (racemic) [Example 13, (3aRS,7aRS)-2-(α-benzyliminophenethyl)-7,7-diphenyl-4-perhydroisoindolone]
[1]; po, read-out: ED50
  ED50: 19 mg/kg

## COc1ccccc1CC(=O)N1C[C@@H]2C(=O)CCC(c3ccccc3)(c3ccccc3)[C@@H]2C1 [Example 49, (3aR,7aR)-(-)-7,7-diphenyl-2-[(2-methoxyphenyl)acetyl]-4-perhydroisoindolone]
[3]
  Binding substance P-H^3 (concentration 1 nM) on washed homogenates of IM-9 cells after freezing: 680

## CN(C)c1ccccc1CC(=O)N1C[C@@H]2C(=O)CCC(c3ccccc3)(c3ccccc3)[C@@H]2C1 [Example 60, (3aR,7aR)-7,7-diphenyl-2-[2-(2-dimethylaminophenyl)acetyl]-4-perhydroisoindolone]
[1]; po, read-out: ED50
  ED50: 38 mg/kg
Septide [2]
  % inhibition of the behaviour at a dose of 10 mg/kg sc: 80%
Substance P
  ED50: ~1 mg/kg
Septide [4]
  antagonism of the hypotension induced by septide: approximately 50%

## N=C(Cc1ccccc1)N1C[C@@H]2C(=O)CCC(c3ccccc3)(c3ccccc3)[C@@H]2C1 (racemic) [Example 4, (3aRS,7aRS)-2-(α-iminophenethyl)-7,7-diphenyl-4-perhydroisoindolone]
[1]; po, read-out: ED50
  ED50: 42 mg/kg
